Source: publication PMC5029629, “β-casein nanovehicles for oral delivery of chemotherapeutic drug combinations overcoming P-glycoprotein-mediated multidrug resistance in human gastric cancer cells” (Oncotarget, 2016)

Target: T1, β-casein (β-CN) (Bos taurus, UniProt P02666)
T1 construct: gene CSN2
T1 sequence (P02666 16-224): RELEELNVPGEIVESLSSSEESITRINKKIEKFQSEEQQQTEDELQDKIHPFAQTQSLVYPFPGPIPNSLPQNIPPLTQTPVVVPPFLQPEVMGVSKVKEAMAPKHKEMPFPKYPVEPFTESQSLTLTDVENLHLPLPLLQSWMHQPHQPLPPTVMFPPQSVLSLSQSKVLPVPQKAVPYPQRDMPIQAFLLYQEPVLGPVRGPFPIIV
Assay: Trp143 fluorescence quenching, modified Stern-Volmer fit (combined static and dynamic)
Format: binding
Details: PBS pH 7.0, 0.1 M ionic strength, 2.5% DMSO, 23 °C, 1 mg/ml protein (micelles); KSV called association constant but also defined as Stern-Volmer overall quenching constant; ligand poorly soluble
Description: Trp143 fluorescence quenching, modified Stern-Volmer fit (combined static and dynamic) on β-casein (β-CN)

Row | SMILES | KSV ± SE (10^4 M^-1)
1 | CC(=O)O[C@H]1C(=O)[C@@]2(C)[C@H]([C@H](OC(=O)c3ccccc3)[C@]3(O)C[C@H](OC(=O)[C@H](O)[C@@H](NC(=O)c4ccccc4)c4ccccc4)C(C)=C1C3(C)C)[C@]1(OC(C)=O)CO[C@@H]1C[C@@H]2O [Paclitaxel] | 0.96 ± 0.07 10^4 M^-1
2 | COc1cc2c(cc1OC)CN(CCc1ccc(NC(=O)c3cc(OC)c(OC)cc3NC(=O)c3cnc4ccccc4c3)cc1)CC2 [Tariquidar] | 1.80 ± 0.16 10^4 M^-1
